Experimental data from ChEMBL document CHEMBL5126559, “Insights into the structure-activity relationship of a type III secretion system inhibitor, aurodox” (Bioorg Med Chem Lett, 2022).
Converted amounts (≈) assume the structure as drawn.

Columns and labels:
[1] = Inhibition of bacterial type III secretion system in enteropathogenic Escherichia coli
Escherichia coli = test: Antibacterial activity against enteropathogenic Escherichia coli; type: functional, organism-based

Row | IC50 [1] [µg/mL] | IC50 (Escherichia coli) [µg/mL] | Structure (SMILES)
1 | > 100 | > 100 | CO[C@H](/C(C)=C/C=C/CN)[C@@H](C)[C@@H]1O[C@H](/C=C/C=C/C=C(\C)C(=O)c2c(O)ccn(C)c2=O)[C@H](O)[C@@H]1O
2 | > 100 | > 100 | C/C=C\C=C\[C@@H]1O[C@](O)([C@H](CC)C(=O)NC/C=C/C=C(\C)[C@@H](OC)[C@@H](C)[C@@H]2O[C@H](/C=C/C=C/C=C(\C)C(=O)c3c(O)ccn(C)c3=O)[C@@H]3OC(=O)O[C@@H]32)[C@H](O)[C@H](O)C1(C)C
3 | 10.4 (≈ 11.8 µM) | > 100 | C/C=C\C=C\[C@@H]1O[C@](O)([C@H](CC)C(=O)NC/C=C/C=C(\C)[C@@H](OC)[C@@H](C)[C@@H]2O[C@H](/C=C/C=C/C=C(\C)C(=O)c3c(OCOC(N)=O)ccn(C)c3=O)[C@H](O)[C@@H]2O)[C@H](O)[C@H](O)C1(C)C
4 | > 100 | > 100 | C/C=C\C=C\[C@@H]1O[C@](O)([C@H](CC)C(=O)NC/C=C/C=C(\C)[C@@H](OC)[C@@H](C)[C@@H]2O[C@H](/C=C/C=C/C=C(\C)C(=O)c3c(O)ccn(C)c3=O)[C@@H]3OC(=O)O[C@@H]32)[C@@H]2OC(=O)O[C@@H]2C1(C)C
5 | 1.19 (≈ 1.37 µM) | 31.1 (≈ 35.9 µM) | C/C=C\C=C\[C@@H]1O[C@](O)([C@H](CC)C(=O)NC/C=C/C=C(\C)[C@@H](OC)[C@@H](C)[C@@H]2O[C@H](/C=C/C=C/C=C(\C)C(=O)c3c(OC(=O)CC)ccn(C)c3=O)[C@H](O)[C@@H]2O)[C@H](O)[C@H](O)C1(C)C
6 | 1.43 (≈ 1.68 µM) | 36.1 (≈ 42.3 µM) | C/C=C\C=C\[C@@H]1O[C@](O)([C@H](CC)C(=O)NC/C=C/C=C(\C)[C@@H](OC)[C@@H](C)[C@@H]2O[C@H](/C=C/C=C/C=C(\C)C(=O)c3c(OC(C)=O)ccn(C)c3=O)[C@H](O)[C@@H]2O)[C@H](O)[C@H](O)C1(C)C

The next lines start with the compound.

Row | Structure (SMILES) | IC50 [1] [µg/mL] | IC50 (Escherichia coli) [µg/mL]
7 | C=CCOc1ccn(C)c(=O)c1C(=O)/C(C)=C/C=C/C=C/[C@H]1O[C@@H]([C@H](C)[C@H](OC)/C(C)=C/C=C/CNC(=O)[C@@H](CC)[C@@]2(O)O[C@@H](/C=C/C=C\C)C(C)(C)[C@@H](O)[C@H]2O)[C@@H](O)[C@H]1O | 4.16 (≈ 4.89 µM) | > 100
8 | C/C=C\C=C\[C@@H]1O[C@](O)([C@H](CC)C(=O)NC/C=C/C=C(\C)[C@@H](OC)[C@@H](C)[C@@H]2O[C@H](/C=C/C=C/C=C(\C)C(=O)c3c(OC)ccn(C)c3=O)[C@H](O)[C@@H]2O)[C@H](O)[C@H](O)C1(C)C | 4.82 (≈ 5.84 µM) | > 100
9 | C/C=C\C=C\[C@@H]1O[C@](O)([C@H](CC)C(=O)NC/C=C/C=C(\C)[C@@H](OC)[C@@H](C)[C@@H]2O[C@H](/C=C/C=C/C=C(\C)C(=O)c3c(OS(=O)(=O)c4ccc(C)cc4)ccn(C)c3=O)[C@H](O)[C@@H]2O)[C@H](O)[C@H](O)C1(C)C | 19 (≈ 19.7 µM) | > 100
10 | C/C=C\C=C\[C@@H]1O[C@](O)([C@H](CC)C(=O)NC/C=C/C=C(\C)[C@@H](OC)[C@@H](C)[C@@H]2O[C@H](/C=C/C=C/C=C(\C)C(=O)c3c(OS(C)(=O)=O)ccn(C)c3=O)[C@H](O)[C@@H]2O)[C@H](O)[C@H](O)C1(C)C | 4.65 (≈ 5.23 µM) | > 100
11 | C/C=C\C=C\[C@@H]1O[C@](O)([C@H](CC)C(=O)NC/C=C/C=C(\C)[C@@H](OC)[C@@H](C)[C@@H]2O[C@H](/C=C/C=C/C=C(\C)C(=O)c3c(OC(=O)c4ccccc4)ccn(C)c3=O)[C@H](O)[C@@H]2O)[C@H](O)[C@H](O)C1(C)C | 1.45 (≈ 1.58 µM) | > 100
12 | C/C=C\C=C\[C@@H]1O[C@](O)([C@H](CC)C(=O)NC/C=C/C=C(\C)[C@@H](OC)[C@@H](C)[C@@H]2O[C@H](/C=C/C=C/C=C(\C)C(=O)c3c(O)ccn(C)c3=O)[C@H](O)[C@@H]2O)[C@H](O)[C@H](O)C1(C)C | 1.42 (≈ 1.75 µM) | 32.8 (≈ 40.4 µM)
13 | C/C=C\C=C\[C@@H]1O[C@](O)([C@H](CC)C(=O)NC/C=C/C=C(\C)[C@@H](OC)[C@@H](C)[C@@H]2O[C@H](/C=C/C=C/C=C(\C)C(=O)c3c([O-])ccn(C)c3=O)[C@H](O)[C@@H]2O)[C@H](O)[C@H](O)C1(C)C.[Na+] | 2.29 | 53.9
14 | C/C=C\C=C\[C@@H]1O[C@](O)([C@H](CC)C(=O)NC/C=C/C=C(\C)[C@@H](OC)[C@@H](C)[C@@H]2O[C@H](/C=C/C=C/C=C(\C)C(=O)c3c(O)ccn(C)c3=O)[C@H](O)[C@@H]2O)[C@H](O)[C@H](O)C1(C)C.[MgH2] | 1.75 | 30.6
15 | C/C=C\C=C\[C@@H]1O[C@]2(O)C(CC)C(=O)O[C@@H]2[C@H](O)C1(C)C (some centres not stated) | > 100 | > 100
16 | C/C=C\C=C\[C@@H]1O[C@](O)([C@H](CC)C(=O)NC/C=C/C=C(\C)[C@@H](OC)[C@@H](C)[C@@H]2O[C@H](/C=C/C=C/C=C(\C)C(=O)c3c([O-])ccn(C)c3=O)[C@H](O)[C@@H]2O)[C@H](O)[C@H](O)C1(C)C.[Li+] | 2.52 | 49.5
